Measured values published in US4213998A, “Inhibition of lipogenesis” (Shell Oil Company, priority 1979, dated 1980).

The molecules below were run on swine adipose tissue (assay: Inhibition of lipogenesis (incorporation of 14C-glucose into lipid) in swine adipose tissue slices). Conditions: Sus scrofa, 100 micrograms per milliliter, 37° C., 2 hours, glucose-U-14C, insulin, 5% DMSO, triplicate, read-out: Percent Inhibition of lipogenesis compared to control.
Type: cell-based
Source text: The manner in which they cause this effect is not known with certainty; it is believed that they interfere with the synthesis of fatty acids in the tissues. Their effectiveness for this purpose has been ascertained by immersing sales of swine adipose tissue in a liquid medium containing radioactive glucose and the test chemical for a period of time, then isolating the lipid from the treated tissue and determining the incorporation of the radioactive carbon into lipid by means of scintillation counting techniques. These tests were conducted in swine adipose tissues because in swine, the primary site of lipogenesis--i.e., fatty acid synthesis--appears to be adipose tissue.
Described in more detail, the tests were conducted according to the following general procedure:
150 milligrams of slices of swine adipose tissue were incubated at 37° C. for 2 hours with shaking in 3 milliliters of Krebs-Ringer bicarbonate solution containing one-half the normal calcium ion concentration, 60 micromoles of glucose, 0.5 micro-Curie of glucose-U^14 C, and 300 microunits of insulin, and 5% dimethylsulfoxide (DMSO). The test compounds were added as a solution or suspension in DMSO and were present at a concentration of 100 micrograms per milliliter of the incubation mixture.
The incubation was terminated by addition of 0.25 milliliter of 1 N sulfuric acid. The resulting mixture was extracted with a total of 25 milliliters of chloroform/methanol (2:1 v/v). The extracts were washed according to Folch et al. (J. Biol. Chem. 226, 497-509, (1957)), air dried, and counted in a liquid scintillation counter with 15 milliliters of counting fluid (two parts toluene containing 0.4% w/v New England Nuclear Omnifluor/1part Triton X-100). The tests were conducted in triplicate and were accompanied by control tests in which all ingredients,proportions and conditions were the same except that no test compound was included. From the data obtained were calculated the precent inhibition of lipid synthesis by the test compounds in each case. The data obtained from the tests are set out in Table 1,as the percent inhibition of lipogenesis compared to the results obtained in the control tests wherein only the test compound was omitted.

Compared with `O=C(O)c1cc2cc(-c3ccccc3)ccc2o1` [Compound 1, 5-phenyl-2-benzofurancarboxylic acid], `O=C(O)c1cc2cc(Cc3ccccc3)ccc2o1` [Compound 8] is higher in inhibition at 100 µg/mL: 49% for the first, 87% for the second.

Compared with `O=C(O)C1Cc2cc(-c3ccccc3)ccc2O1` (stereo not drawn) [Compound 2, 2,3-dihydro-5-phenyl-2-benzofurancarboxylic acid], `O=C(O)C1Cc2cc(Cc3ccccc3)ccc2O1` (stereo not drawn) [Compound 20] is lower in inhibition at 100 µg/mL: 50% for the first, 40% for the second.

Compared with `CCC(C)c1ccc2oc(C(=O)O)cc2c1` (stereo not drawn) [Compound 3], `CCCCCCOc1ccc2oc(C(=O)O)cc2c1` [Compound 7] is higher in inhibition at 100 µg/mL: 64% for the first, 78% for the second.

First: O=C(O)c1cc2cc(C3CCCCC3)ccc2o1 [Compound 4]
Second: O=C(O)C1Cc2cc(C3CCCCC3)ccc2O1 (stereo not drawn) [Compound 19]
The inhibition at 100 µg/mL of the first is higher: 91% for the first, 72% for the second.

Compared with `O=C(O)c1cc2ccc(Oc3ccccc3)cc2o1` [Compound 5], `O=C(O)c1cc2c(Oc3ccccc3)cccc2o1` [Compound 9, 4-phenoxy-2-benzofurancarboxylic acid] is lower in inhibition at 100 µg/mL: 86% for the first, 83% for the second.

Compared with `O=C(c1ccccc1)c1ccc2oc(C(=O)O)cc2c1` [Compound 6], `CC(=O)c1ccc(-c2ccc3oc(C(=O)O)cc3c2)cc1` [Compound 10, 5-(4-acetylphenyl)-2-benzofurancarboxylic acid] is lower in inhibition at 100 µg/mL: 44% for the first, 41% for the second.

Going from `CC(=O)Oc1ccc(-c2ccc3oc(C(=O)O)cc3c2)cc1` [Compound 11, 5-(4-(acetyloxy)phenyl)-2-benzofurancarboxylic acid] to `COc1ccc(-c2ccc3oc(C(=O)O)cc3c2)cc1` [Compound 17, 5-(4-methoxyphenyl)-2-benzofurancarboxylic acid], the inhibition at 100 µg/mL falls from 80% to 56%.

Going from `O=C(O)c1cc2cc(-c3ccc(Cl)cc3)ccc2o1` [Compound 12, 5-(4-chlorophenyl)-2-benzofurancarboxylic acid] to `O=C(O)c1cc2cc(-c3ccc(O)cc3)ccc2o1` [Compound 16, 5-(4-hydroxyphenyl)-2-benzofurancarboxylic acid], the inhibition at 100 µg/mL falls from 55% to 30%.

Going from `COc1cccc2cc(C(=O)O)oc12` [Compound 13] to `O=C(O)c1cc2cccc(Cl)c2o1` [Compound 15], the inhibition at 100 µg/mL rises from 22% to 59%.

First: COc1ccc2cc(C(=O)O)oc2c1OC [Compound 14]
Second: CCC(C)c1ccc2c(c1)CC(C(=O)O)O2 (stereo not drawn) [Compound 18]
The inhibition at 100 µg/mL of the first is lower: 24% for the first, 35% for the second.

First: CCCCCCOc1ccc2c(c1)CC(C(=O)O)O2 (stereo not drawn) [Compound 21]
Second: O=C(O)C1Cc2cc(-c3ccc(Cl)cc3)ccc2O1 (stereo not drawn) [Compound 24]
The inhibition at 100 µg/mL of the first is lower: 49% for the first, 56% for the second.

First: O=C(O)C1Cc2ccc(Oc3ccccc3)cc2O1 (stereo not drawn) [Compound 22]
Second: O=C(O)C1Cc2c(Oc3ccccc3)cccc2O1 (stereo not drawn) [Compound 23]
The inhibition at 100 µg/mL of the first is higher: 62% for the first, 27% for the second.
